The term IC50 denotes the concentration that gives 50% inhibition. Higher therefore signals lower potency.

SMILES strings stand for the structures.

These results are taken from patent US20150335692A1, “ORAL PREPARATION, INJECTION PREPARATION, EXTERNAL SKIN PREPARATION AND COSMETIC METHOD FOR PREVENTING OR IMPROVING WRINKLES” (Shiseido Company, Ltd., priority 2008, published 2015).

For one test, the system named is fine wrinkle model. The test can be described thus: Anti-wrinkle effects in fine wrinkle model (visual wrinkle score). The class given is in vivo. The settings on record: 1 mM in 50% aqueous ethanol, 100 μl applied to skin three times a week for two weeks; scored two weeks later; higher scores indicate deeper wrinkles. The procedure:
The anti-wrinkle effects of the heparanase inhibitor, suramin, were assessed using a fine wrinkle model (Non-Patent Document 2).
Suramin was dissolved in 50% aqueous ethanol solution to a concentration of 1 mM and applied in 100 μl aliquots to skin of the fine wrinkle model three times a week for a period of two weeks during which time fine wrinkles are formed. A 50% aqueous ethanol solution was used as a solvent control.
The formation of wrinkles two weeks later was scored by visual evaluation. Wrinkle formation was scored in increments of 0.5 based on evaluation criteria consisting of: no wrinkles: 0, slight wrinkles: 1, obvious wrinkles: 2 and deep wrinkles: 3. Higher scores indicate deeper wrinkles. In contrast to the mean value of the scores of the solvent control being 0.78, that for suramin was 0.31, thereby indicating significant wrinkle inhibitory effects as compared with the solvent control. Namely, the application of suramin at 1 mM significant inhibited wrinkle formation as compared with 50% ethanol applied as a solvent control. […]
The formation of wrinkles two weeks later was scored by visual evaluation. Wrinkle formation was scored in increments of 0.5 based on evaluation criteria consisting of: no wrinkles: 0, slight wrinkles: 1, obvious wrinkles: 2 and deep wrinkles: 3. […]

The test system of test [1] is basement membrane heparan sulfate chains. The test can be described thus: Immunostaining of epidermal basement membrane heparan sulfate chains in skin of fine wrinkle model. The class given is in vivo. The settings on record: skin coated with 1 mM compound versus 50% ethanol solvent control. An excerpt: Next, heparan sulfate chains were immunostained for the skin after 2 days, 1 week and 2 weeks, and the staining results are shown in FIG. 4. Although staining of basement membrane heparan sulfate chains decreased from 2 days to 1 week in skin of the solvent control, stainability of basement membrane heparan sulfate chains was protected by application of suramin.
Next, heparan sulfate chains and perlecan core protein in the skin were immunostained, and the staining results are shown in FIG. 6. Although staining of basement membrane heparan sulfate chains decreased considerably for the solvent control, stainability of basement membrane heparan sulfate chains was protected in the 1-[4-(1H-benzoimidazol-2-yl)-phenyl]-3-[4-(1H-benzoimidazol-2-yl)-phenyl]-urea application group.

The next test deals with T1, heparanase (Homo sapiens, UniProt Q9Y251).
T1 construct: the resulting supernatant was used as a cell extract; endogenous in cells; host or cells: A431 cells (lysate supernatant)
T1 sequence (Q9Y251 158-543 limits assumed): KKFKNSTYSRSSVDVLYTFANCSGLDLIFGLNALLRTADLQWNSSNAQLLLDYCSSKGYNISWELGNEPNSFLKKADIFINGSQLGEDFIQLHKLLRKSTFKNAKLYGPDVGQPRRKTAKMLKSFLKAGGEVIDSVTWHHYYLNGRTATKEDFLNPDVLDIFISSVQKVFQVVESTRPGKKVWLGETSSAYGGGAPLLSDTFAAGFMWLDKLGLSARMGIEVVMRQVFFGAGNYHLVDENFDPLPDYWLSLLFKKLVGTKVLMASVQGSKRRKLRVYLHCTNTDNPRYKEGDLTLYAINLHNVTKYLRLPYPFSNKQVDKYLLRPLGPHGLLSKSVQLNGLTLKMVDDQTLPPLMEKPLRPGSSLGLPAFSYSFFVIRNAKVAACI
T1 sequence (Q9Y251 36-109 limits assumed): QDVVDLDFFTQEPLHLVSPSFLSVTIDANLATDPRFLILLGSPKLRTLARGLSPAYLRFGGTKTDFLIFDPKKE
The test can be described thus: Primary evaluation: heparanase activity inhibition, A431 cell extract on biotinylated heparan sulfate-immobilized plate. The class given is biochemical. Conditions: 2 hours at 37° C., DMSO control. An excerpt: As will be described in detail in the following examples, primary evaluation of heparanase activity can be carried out by, for example, immobilizing biotinylated heparan sulfate in a 96-well plate, allowing the heparanase to act in the presence of a pharmaceutical preparation or herbal medicine, and evaluating the activity of heparanase as the amount of the decrease in biotinylated heparan sulfate by allowing peroxidase-labeled avidin to act thereon and developing the resulting color. […] Secondary evaluation can be carried out by using HT1080 cells expressing heparanase. […] Therefore, heparanase inhibitory activity can be evaluated on the basis of the degree of migration (recovery) at the scratched site by adding an evaluation reagent.
A431 cells (invasive human epithelial carcinoma cells) were cultured in DMEM medium containing 10% serum. […] The amount of protein in the cell extract was measured with a BCA Protein Assay Kit (Pierce, CA46141). […]
Heparanase activity was calculated from a calibration curve of the A431 cell extract, and inhibition rate (%) was indicated as a relative value to a reference (control) to which the cell extract was not added. […]
The plant extracts were evaluated for heparanase inhibitory effects in accordance with the aforementioned primary and secondary evaluation methods using sample solutions of the plant extracts instead of 4-(1H-benzoimidazol-2-yl)-phenylamine.

Another test deals with HT1080 cells. The test can be described thus: Secondary evaluation: wound healing assay using HT1080 cells. Format: cell-based. Conditions: HT1080 cells, 1, 10, 100 μM, DMSO control. An excerpt:
As will be described in detail in the following examples, primary evaluation of heparanase activity can be carried out by, for example, immobilizing biotinylated heparan sulfate in a 96-well plate, allowing the heparanase to act in the presence of a pharmaceutical preparation or herbal medicine, and evaluating the activity of heparanase as the amount of the decrease in biotinylated heparan sulfate by allowing peroxidase-labeled avidin to act thereon and developing the resulting color. […] Secondary evaluation can be carried out by using HT1080 cells expressing heparanase. When HT1080 cells are scratched after having been cultured to confluency, cells are known to migrate in a heparanase activity-dependent manner (see Ishida, K., et al., Mol. Cancer Ther., 2004, 3(9): 1069-1077 (Non-Patent Document 4)). Therefore, heparanase inhibitory activity can be evaluated on the basis of the degree of migration (recovery) at the scratched site by adding an evaluation reagent.
HT1080 cells were inoculated into a 6-well plate at 500,000 cells/well, and the medium was replaced with that containing each drug 24 hours later followed by scratching in the vertical direction with a 1000 μL tip. Micrographs were taken 6 hours later and changes at the scratched site were observed. […] DMSO was allowed to act as a control instead of the candidate drugs.

For the molecule `O=C(Nc1ccc(-c2nc3ccccc3[nH]2)cc1)Nc1ccc(-c2nc3ccccc3[nH]2)cc1` [1-[4-(1H-benzoimidazol-2-yl)-phenyl]-3-[4-(1H-benzoimidazol-2-yl)-phenyl]-urea], the “mean value of wrinkle formation scores (visual evaluation; 0 no wrinkles to 3 deep wrinkles)” value with fine wrinkle model amounted to 0.36. Also, the “stainability of basement membrane heparan sulfate chains (immunostaining)” value in test [1] is given as “protected”.
`Nc1ccc(-c2nc3ccccc3[nH]2)cc1` [4-(1H-benzoimidazol-2-yl)-phenylamine] had an IC50 against heparanase of 256 µM. Besides, the “cell migration activity at scratched site” value in the test with HT1080 cells is recorded as “decreased in a concentration-dependent manner”.
Regarding `Cc1ccc(C(=O)Nc2ccc(S(=O)(=O)O)c3cc(S(=O)(=O)O)cc(S(=O)(=O)O)c23)cc1NC(=O)c1cccc(NC(=O)Nc2cccc(C(=O)Nc3cc(C(=O)Nc4ccc(S(=O)(=O)O)c5cc(S(=O)(=O)O)cc(S(=O)(=O)O)c45)ccc3C)c2)c1` [suramin], the “mean value of wrinkle formation scores (visual evaluation; 0 no wrinkles to 3 deep wrinkles)” value with fine wrinkle model was 0.31. The “stainability of basement membrane heparan sulfate chains (immunostaining)” value in test [1] is given as “protected”.
